Data: patent US20080275134A1, “Methods for Treatment of Retinal Degenerative Disease” (University of Washington, priority 2005, published 2008)
“Also recorded” adds a separate entry of the source.

Legend:
[1] = HPLC and mass spectrometry analysis of liver samples of treated mice; format: in vivo, mouse
Excerpt: Next, the RA oxidation pathway was investigated. […] In addition to secretion, Ret-NH2 might be degraded first by deamination to all-trans-retinol/retinal, which was seen to increase in Ret-NH2 treated cells. […] These observations explain the long-lasting effect of RetNH2, as the amide is stored and hydrolyzed back to the free amine.

[2] = target: T1, RPE65 (Bos taurus, UniProt Q28175); assay: gel filtration of RPE proteins with anti-RPE65 immunoblot; format: binding, bovine; conditions: RPE65 found in fractions 23-34
T1 construct: RPE microsomes were solubilized with 10 mM DHPC; from tissue; host or cells: bovine RPE microsomes, DHPC extract
T1 sequence (Q28175 whole entry): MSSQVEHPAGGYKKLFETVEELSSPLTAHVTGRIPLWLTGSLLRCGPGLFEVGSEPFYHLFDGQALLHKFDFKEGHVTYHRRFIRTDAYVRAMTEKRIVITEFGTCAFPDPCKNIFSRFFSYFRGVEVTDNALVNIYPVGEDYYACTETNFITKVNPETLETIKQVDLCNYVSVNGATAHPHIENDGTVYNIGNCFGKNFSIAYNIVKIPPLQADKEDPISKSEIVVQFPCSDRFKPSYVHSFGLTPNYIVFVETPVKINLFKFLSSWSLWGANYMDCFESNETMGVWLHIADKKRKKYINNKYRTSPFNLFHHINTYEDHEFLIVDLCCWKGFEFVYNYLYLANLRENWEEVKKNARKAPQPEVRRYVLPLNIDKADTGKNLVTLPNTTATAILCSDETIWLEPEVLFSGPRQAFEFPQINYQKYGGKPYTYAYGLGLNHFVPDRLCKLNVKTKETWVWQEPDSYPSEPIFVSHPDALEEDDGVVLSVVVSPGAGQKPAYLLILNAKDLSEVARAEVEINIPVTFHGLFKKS
Experimental: The specificity of Ret-NH2 was further tested by biochemical assays. […] When the RPE microsomes were solubilized with DHPC, the isomerase activity decreased only slightly. Then [^3H]-Ret-NH2 was added to the RPE extract and loaded on a gel filtration column. Proteins were fractionated and eluted between fractions 18 and 60 (FIG. 3A), while the radioactivity was eluted in fractions 36-38. RPE65 was identified by immunoblotting in fractions 23-34 (FIG. 3B). The most abundant proteins in this fraction were identified by mass spectrometry and include glucose phosphate isomerase, D-glyceraldehyde-3-phosphate dehydrogenase, phosphoglycerate mutase, triose phosphate isomerase, enolase, annexin V, calbindin 2, and LRAT. Identification of less abundant proteins is in progress.
RPE microsomes were solubilized with 10 mM DHPC, incubated with 11,12-di[^3H]-all-trans-Ret-NH2 (1 μM), and loaded on a Superdex 200 column equilibrated with Tris/HCl buffer, pH 7.5, containing 4 mM DHPC. Proteins were eluted with a constant flow rate of 0.4 ml/min. The protein and radioactivity levels of 0.4 ml fractions were examined by SDS-PAGE and scintillation counting (A), and immunoblot with anti-RPE65 and anti-LRAT antibodies (B). The star indicates the fraction associated with maximum radioactivity.

[3] = target: CRALBP (Homo sapiens, UniProt P12271); assay: analysis of retinoids bound to CRALBP isolated from the reaction mixture; format: binding
Chain of CRALBP (P12271 whole entry, species assumed): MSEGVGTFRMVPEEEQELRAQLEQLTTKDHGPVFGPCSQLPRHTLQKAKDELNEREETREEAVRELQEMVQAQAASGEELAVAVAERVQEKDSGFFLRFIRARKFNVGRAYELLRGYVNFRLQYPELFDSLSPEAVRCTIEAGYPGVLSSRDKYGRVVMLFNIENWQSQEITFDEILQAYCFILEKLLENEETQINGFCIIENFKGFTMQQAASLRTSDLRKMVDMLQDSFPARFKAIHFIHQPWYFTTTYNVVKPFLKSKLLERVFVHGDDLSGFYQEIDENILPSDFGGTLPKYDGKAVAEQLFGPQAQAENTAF

[4] = observation of mice for systemic toxicity after oral gavage; format: in vivo; conditions: single doses 0.5 to 100 mg/kg
[5] = tested on: visual function (a-wave and b-wave); assay: single flash ERG responses of treated mice; format: in vivo, mouse
Experimental: A. Chromatographic separation of nonpolar retinoids from WT mouse eyes. Mice were gavaged with all-trans-Ret-NH2 24 hours prior to bleaching for 20 min at 150 cd·m^−2 W in the Ganzfeld chamber. Regeneration of 11-cis-retinal was allowed for 24 hours in the dark, and retinoids were extracted from the eye and separated by normal phase HPLC as described in Materials and Methods. The peaks were identified based on elution time and absorption spectra correspond to the following retinoids: 1, all-trans-retinyl esters; 2,2′, syn- and anti-11-cis-retinal oximes; 3, syn-all-trans-retinal oxime; 4,4′, syn- and anti-9-cis-retinal oximes; 5, all-trans-retinol. B. Changes of 11-cis-retinal oxime levels at increasing doses of all-trans-Ret-NH2 during 5 hours or 24 hours of dark adaptation. Square indicates the level of 11-cis-retinal oximes that was present in mice gavaged with vegetable oil without retinoids just after bleaching, and arrow indicates the increase of visual chromophore during 5 hours of dark adaptation. Triangles correspond to the level of 11-cis-retinal found in the mice gavaged with 50 mg/kg of 13-cis-RA. C and D. Single flash ERG responses of increasing intensity for all-trans-Ret-NH2 treated mice and control mice. Serial responses to increasing flash stimuli were obtained for all-trans-Ret-NH2 treated and control mice for selected intensities (C) and plotted as a function of a-wave and b-wave versus varying light intensities under dark-adapted conditions (D) before bleach and at 5 hours and 24 hours after bleach. The dark-adapted mice were bleached with intense constant illumination (150 cd·m^−2) for 20 min. […] SE bars are shown. […]
The conclusions derived from the analysis of retinoids of Ret-NH2-treated mice were supported by ERG analysis of visual functions. […] Next, the impact of all-trans-Ret-NH2 administration on the visual physiology of wild-type mice was evaluated in vivo with ERGs. […]

[6] = target: T2, RXR (Mus musculus, UniProt P28700); assay: HEK-293 cells with DR1-lacZ reporter and mouse RXRA, β-galactosidase activity; format: cell-based; conditions: 48 hours treatment, micromolar concentrations
T2 construct: The RXR-A ORF was then subcloned into pcDNA3.1 Directional TOPO vector; expressed in transfected cells; host or cells: HEK-293, transient transfection with pcDNA3.1 Directional TOPO
T2 sequence (P28700 1-467): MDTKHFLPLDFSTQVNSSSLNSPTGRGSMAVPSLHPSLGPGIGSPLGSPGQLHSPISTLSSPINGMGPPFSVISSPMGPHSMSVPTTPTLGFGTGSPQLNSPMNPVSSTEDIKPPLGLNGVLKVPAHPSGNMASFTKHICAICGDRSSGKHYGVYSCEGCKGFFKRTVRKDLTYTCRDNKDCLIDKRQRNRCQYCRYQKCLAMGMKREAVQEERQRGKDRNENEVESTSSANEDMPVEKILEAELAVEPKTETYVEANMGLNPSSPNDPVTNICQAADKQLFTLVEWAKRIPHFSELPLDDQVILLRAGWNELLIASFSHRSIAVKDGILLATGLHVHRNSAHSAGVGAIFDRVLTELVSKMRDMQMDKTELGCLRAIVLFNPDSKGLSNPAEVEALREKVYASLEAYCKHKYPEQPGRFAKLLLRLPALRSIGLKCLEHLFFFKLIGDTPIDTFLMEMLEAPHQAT

SMILES	metabolite found in liver [1]	binding to RPE65 [2]	binding to CRALBP [3]	symptoms of systemic toxicity such as weight loss or gastrointestinal disorder [4]	dark-adapted ERG a- and b-wave responses after bleach ([5]; 50 mg/kg single dose, 20 min bleach, 5 and 24 hours after, P<0.0001 vs control)	light-adapted (photopic) ERG responses, cone function ([5]; 50 mg/kg single dose, before and 5 and 24 hours after bleach, p>0.1 vs control)	dark-adapted ERG before bleach ([5]; 24 hours after 50 mg/kg gavage)	activation of transcription through RXR (DR1 elements) [6]
CC1=C(/C=C/C(C)=C/C=C/C(C)=C/CN)C(C)(C)CCC1 [Ret-NH2, Retinylamine]	amidated to N-retinylpalmitamide	does not bind	does not bind	–	–	–	–	–
CC1=C(/C=C/C(C)=C/C=C/C(C)=C/CN)C(C)(C)CCC1 [all-trans-Ret-NH2, all-trans-retinylamine]	–	–	–	did not exhibit symptoms of systemic toxicity	significantly attenuated	attenuated weakly; also recorded: not affected by all-trans-Ret-NH2 to the same extent as rod function	normal waveforms and responses	does not activate protein transcription
